# Test results reported in patent publication US11591355B2 (Peloton Therapeutics, Inc., priority 2017, dated 2023).
# Key:
# Human CD73 = molecular target: T1, Human CD73 (Homo sapiens, UniProt P21589); test: CD73 Enzyme Assay; assay type: biochemical; conditions: 0.25 nM hCD73, 25 μM AMP, kinetic read at 360 nm; read-out: CD73 Enzyme Assay IC50
# T1 construct: purchased R&D Systems; host or cells: CHO cells
# T1 sequence (P21589 27-549): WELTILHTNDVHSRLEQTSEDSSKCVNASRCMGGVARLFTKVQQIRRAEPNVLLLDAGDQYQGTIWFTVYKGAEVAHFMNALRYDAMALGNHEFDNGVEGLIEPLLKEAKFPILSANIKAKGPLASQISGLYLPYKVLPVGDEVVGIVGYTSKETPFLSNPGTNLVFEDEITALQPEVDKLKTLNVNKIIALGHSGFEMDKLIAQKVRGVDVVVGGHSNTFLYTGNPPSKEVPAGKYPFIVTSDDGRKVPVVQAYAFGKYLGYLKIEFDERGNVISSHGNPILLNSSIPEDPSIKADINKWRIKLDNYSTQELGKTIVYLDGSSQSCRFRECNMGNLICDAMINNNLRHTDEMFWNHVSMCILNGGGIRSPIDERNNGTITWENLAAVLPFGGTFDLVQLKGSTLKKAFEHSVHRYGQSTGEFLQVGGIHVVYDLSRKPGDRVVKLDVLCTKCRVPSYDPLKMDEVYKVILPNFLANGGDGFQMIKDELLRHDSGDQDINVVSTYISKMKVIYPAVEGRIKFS
# [1] = molecular target: T2, CD73 on U138 human neuroglioma cells (Homo sapiens, UniProt P21589); test: CD73 Cell-Based Assay; conditions: U138 cells, AMP substrate, 2 hours at 37° C., inorganic phosphate by malachite green
# T2 construct: U138 cells were obtained from ATCC and cultured in DMEM with 10% FBS; host or cells: U138 human neuroglioma cells
# T2 sequence (P21589 27-549): T1 sequence (P21589 27-549)
# Description: U138 human neuroglioma cells were used in these experiments. U138 cells were obtained from ATCC and cultured in DMEM with 10% FBS. 2500 cells were seeded into 96-well plate with 100 μL of media the day before the experiment. Cells were washed twice with 200 μL of assay buffer (20 mM HEPES, pH 7.4; 137 mM NaCl; 5.4 mM KCl; 1.3 mM CaCl2); 4.2 mM NaHCO3; 1 mg/mL glucose) to remove residual inorganic phosphate. After washing, 100 μL of buffer was added to each well, then 100 μL of a mixture of AMP substrate (200 μM) and diluted compound was added to each well. The cells were incubated at 37° C. (with 5% CO2) for 2 hours. 50 μL of supernatant was transferred to a 96-well assay plate and the concentration of inorganic phosphate was determined using malachite green reagent (R&D System; Cat: DY996).
IC50 (Human CD73),IC50 [1],SMILES
100 to 1000 nM,10 to 100 nM,"O=P(O)(O)COC[C@H]1O[C@@H](n2cnc3c(NCc4ccccc4)nc(Cl)nc32)[C@H](O)[C@@H]1O [Compound 3, [(2R,3S,4R,5R)-5-[6-(benzylamino)-2-chloro-purin-9-yl]-3,4-dihydroxy-tetrahydrofuran-2-yl]methoxymethyl-phosphonic acid]"
< 10 nM,100 to 1000 nM,"N#Cc1nc(NCc2ccccc2)c2ncn([C@@H]3O[C@H](COCP(=O)(O)O)[C@@H](O)[C@H]3O)c2n1 [Compound 4, [(2R,3S,4R,5R)-5-[6-(benzylamino)-2-cyano-purin-9-yl]-3,4-dihydroxy-tetrahydrofuran-2-yl]methoxymethyl-phosphonic acid]"
100 to 1000 nM,> 1000 nM,"Cn1cc(-c2nc(NCc3ccccc3)c3ncn([C@@H]4O[C@H](COCP(=O)(O)O)[C@@H](O)[C@H]4O)c3n2)cn1 [Compound 9, [(2R,3S,4R,5R)-5-[6-(benzylamino)-2-(1-methylpyrazol-4-yl)-purin-9-yl]-3,4-dihydroxy-tetrahydro-furan-2-yl]methoxy-methylphosphonic acid]"
100 to 1000 nM,> 1000 nM,"CC(C)Nc1ncnc2c1ncn2[C@@H]1O[C@H](COCP(=O)(O)O)[C@@H](O)[C@H]1O [Compound 12, [(2R,3S,4R,5R)-3,4-dihydroxy-5-[6-(iso-propylamino)purin-9-yl]tetrahydrofuran-2-yl]methoxymethyl-phosphonic acid]"
10 to 100 nM,100 to 1000 nM,"CC(C)Nc1nc(Cl)nc2c1ncn2[C@@H]1O[C@H](COCP(=O)(O)O)[C@@H](O)[C@H]1O [Compound 15, [(2R,3S,4R,5R)-5-[2-chloro-6-(isopropyl-amino)purin-9-yl]-3,4-dihydroxy-tetra-hydrofuran-2-yl]-methoxymethylphos-phonic acid]"
10 to 100 nM,100 to 1000 nM,"CC(C)Nc1nc(C#N)nc2c1ncn2[C@@H]1O[C@H](COCP(=O)(O)O)[C@@H](O)[C@H]1O [Compound 16, [(2R,3S,4R,5R)-5-[2-cyano-6-(isopropyl-amino)purin-9-yl]-3,4-dihydroxy-tetrahydrofuran-2-yl]methoxymethyl-phosphonic acid]"
100 to 1000 nM,100 to 1000 nM,"CC(Nc1ncnc2c1ncn2[C@@H]1O[C@H](COCP(=O)(O)O)[C@@H](O)[C@H]1O)c1ccccc1 (stereo partly drawn) [Compound 18, [(2R,3S,4R,5R)-3,4-dihydroxy-5-[6-(1-phenylethylamino)purin-9-yl]tetrahydrofuran-2-yl]methoxymethylphosphonic acid]"
10 to 100 nM,10 to 100 nM,"C[C@@H](Nc1nc(Cl)nc2c1ncn2[C@@H]1O[C@H](COCP(=O)(O)O)[C@@H](O)[C@H]1O)c1ccccc1 [Compound 20, [(2R,3S,4R,5R)-5-[2-chloro-6-[[(1R)-1-phenylethyl]amino]-purin-9-yl]-3,4-dihydroxy-tetrahydro-furan-2-yl]methoxy-methylphosphonic acid]"
10 to 100 nM,10 to 100 nM,"C[C@H](Nc1nc(Cl)nc2c1ncn2[C@@H]1O[C@H](COCP(=O)(O)O)[C@@H](O)[C@H]1O)c1ccccc1 [Compound 21, ((((2R,3S,4R,5R)-5-(2-chloro-6-(((S)-1-phenylethyl)amino)-9H-purin-9-yl)-3,4-dihydroxytetrahydrofuran-2-yl)methoxy)methyl)phosphonic acid]"
100 to 1000 nM,100 to 1000 nM,"O=P(O)(O)COC[C@H]1O[C@@H](n2cnc3c(NC4CCCC4)ncnc32)[C@H](O)[C@@H]1O [Compound 32, [(2R,3S,4R,5R)-5-[6-(cyclopentylamino)-purin-9-yl]-3,4-dihydroxy-tetrahydro-furan-2-yl]methoxy-methylphosphonic acid]"
10 to 100 nM,10 to 100 nM,"C[C@H](Nc1nc(C#N)nc2c1ncn2[C@@H]1O[C@H](COCP(=O)(O)O)[C@@H](O)[C@H]1O)c1ccccc1 [Compound 36, [(2R,3S,4R,5R)-5-[2-cyano-6-[[(1S)-1-phenylethyl]amino]purin-9-yl]-3,4-dihydroxy-tetrahydrofuran-2-yl]methoxymethylphosphonic acid; 2,2,2-trifluoroacetic acid]"
100 to 1000 nM,100 to 1000 nM,"O=P(O)(O)COC[C@H]1O[C@@H](n2cnc3c(N4CCCC4)ncnc32)[C@H](O)[C@@H]1O [Compound 43, [(2R,3S,4R,5R)-3,4-dihydroxy-5-(6-pyrrolidin-1-ylpurin-9-yl)tetrahydrofuran-2-yl]methoxymethyl-phosphonic acid]"
> 1000 nM,> 1000 nM,"O=P(O)(O)COC[C@H]1O[C@@H](n2cnc3c(-c4ccccc4)ncnc32)[C@H](O)[C@@H]1O [Compound 46, [(2R,3S,4R,5R)-3,4-dihydroxy-5-(6-phenylpurin-9-yl)tetrahydrofuran-2-yl]methoxymethylphosphonic acid]"
10 to 100 nM,10 to 100 nM,"C[C@H](Nc1ncnc2c1ncn2[C@@H]1O[C@H](COCP(=O)(O)O)[C@@H](O)[C@H]1O)c1ccc(F)cc1 [Compound 49, [(2R,3S,4R,5R)-5-[6-[[(1S)-1-(4-fluoro-phenyl)ethyl]amino]-purin-9-yl]-3,4-dihydroxy-tetrahydro-furan-2-yl]methoxy-methylphosphonic acid]"
100 to 1000 nM,100 to 1000 nM,O=P(O)(O)COC[C@H]1O[C@@H](n2cnc3c(NC4CCc5ccccc54)ncnc32)[C@H](O)[C@@H]1O (stereo partly shown) [Compound 52]
10 to 100 nM,10 to 100 nM,"O=P(O)(O)COC[C@H]1O[C@@H](n2cnc3c(N4Cc5ccccc5C4)nc(Cl)nc32)[C@H](O)[C@@H]1O [Compound 54, [(2R,3S,4R,5R)-5-(2-chloro-6-isoindolin-2-yl-purin-9-yl)-3,4-dihydroxy-tetrahydro-furan-2-yl]methoxy-methylphosphonic acid]"
10 to 100 nM,10 to 100 nM,"O=P(O)(O)COC[C@H]1O[C@@H](n2ccc3c(NCc4ccccc4)nc(Cl)nc32)[C@H](O)[C@@H]1O [Compound 56, [(2R,3S,4R,5R)-5-[4-(benzylamino)-2-chloro-pyrrolo[2,3-d]-pyrimidin-7-yl]-3,4-dihydroxy-tetrahydro-furan-2-yl]methoxy-methylphosphonic acid]"
100 to 1000 nM,100 to 1000 nM,"O=P(O)(O)COC[C@H]1O[C@@H](n2cnc3c(NCc4ccccc4)cc(Cl)nc32)[C@H](O)[C@@H]1O [Compound 57, [(2R,3S,4R,5R)-5-[7-(benzylamino)-5-chloro-imidazo[4,5-b]pyridin-3-yl]-3,4-dihydroxy-tetrahydrofuran-2-yl]methoxymethylphosphonic acid]"
< 10 nM,10 to 100 nM,"C[C@H](Nc1nc(Cl)nc2c1ccn2[C@@H]1O[C@H](COCP(=O)(O)O)[C@@H](O)[C@H]1O)c1ccccc1 [Compound 60, [(2R,3S,4R,5R)-5-[2-chloro-4-[[(1S)-1-phenylethyl]amino]-pyrrolo[2,3-d]-pyrimidin-7-yl]-3,4-dihydroxy-tetrahydro-furan-2-yl]methoxy-methylphosphonic acid]"
< 10 nM,< 10 nM,"C[C@@H](Nc1nc(Cl)nc2c1ccn2[C@@H]1O[C@H](COCP(=O)(O)O)[C@@H](O)[C@H]1O)c1ccccc1 [Compound 61, [(2R,3S,4R,5R)-5-[2-chloro-4-[[(1R)-1-phenylethyl]amino]pyrrolo[2,3-d]pyrimidin-7-yl]-3,4-dihydroxy-tetrahydrofuran-2-yl]methoxymethylphosphonic acid]"
< 10 nM,< 10 nM,"C[C@@H](Nc1nc(C#N)nc2c1ccn2[C@@H]1O[C@H](COCP(=O)(O)O)[C@@H](O)[C@H]1O)c1ccccc1 [Compound 62, [(2R,3S,4R,5R)-5-[2-cyano-4-[[(1R)-1-phenylethyl]amino]pyrrolo[2,3-d]pyrimidin-7-yl]-3,4-dihydroxy-tetrahydrofuran-2-yl]methoxymethylphosphonic acid]"
10 to 100 nM,< 10 nM,"C[C@H](Nc1nc(C#N)nc2c1ccn2[C@@H]1O[C@H](COCP(=O)(O)O)[C@@H](O)[C@H]1O)c1ccccc1 [Compound 67, [(2R,3S,4R,5R)-5-[2-cyano-4-[[(1S)-1-phenylethyl]amino]-pyrrolo[2,3-d]-pyrimidin-7-yl]-3,4-dihydroxy-tetrahydro-furan-2-yl]methoxy-methylphosphonic acid]"

SMILES,IC50 (Human CD73),IC50 [1]
"O=P(O)(O)COC[C@H]1O[C@@H](n2cnc3c(OC4CCCC4)ncnc32)[C@H](O)[C@@H]1O [Compound 55, [(2R,3S,4R,5R)-5-[6-(cyclopentoxy)purin-9-yl]-3,4-dihydroxy-tetrahydrofuran-2-yl]-methoxymethylphos-phonic acid]",100 to 1000 nM,> 1000 nM
